# Laboratory results published in US12391659B2, “Benzothiazole and related compounds” (Spinogenix, Inc., priority 2017, dated 2025).
# Test system: primary mouse cortical neurons
# Assay: In vitro spinogenesis: synaptophysin (P38) puncta / synapse count in primary mouse cortical neurons
# Type: cell-based
# Conditions: for increase in the number of synapses compared to the control: 1 μM, 24 hrs of treatment starting at DIV 15, DIV 16 neurons; for number of synaptic puncta (P38-immunopositive) compared to the vehicle control: 5 μM, 24 hours of treatment starting at DIV 15, DIV 16 neurons
# Excerpt: Compounds of the current invention bind to the actin bundling protein, fascin, and prevent the formation of long, stiff actin cytoskeleton, thereby promoting dendritic spine formation. (see, Sedeh, R. S. et al. J. Mol. Biol. 400, 589-604 (2010); Chen, L. et al. Nature 464, 1062-1066 (2010); Jansen, S. et al. J. Biol. Chem. 286, 30087-30096 (2011); Yang, S. et al. J. Biol. Chem. 288, 274-284 (2013); Zheng, S. et al. J. Med. Chem. 57, 6653-6667 (2014)). […] Specifically, the Benzothiazole-IIIA and Benzothiazole-IIIB compounds of the instant invention, as well as the Benzothiazole-I compound as described in International application number PCT/US2017/012139, were used in this study (FIG. 1).
# Primary mouse cortical neurons were treated with 5 μM of Benzothiazole-I, Benzothiazole-IIIA, or Benzothiazole-IIIB at DIV 15. As a control, primary mouse cortical neurons were treated with the vehicle only (10% DMSO, 90% phosphate buffered saline (PBS)). After 24 hours, the DIV 16 neurons were fixed, immunostained using the presynaptic vesicle protein synaptophysin (P38), counterstained with the nuclear dye DAPI (4′,6-diamidino-2-phenylindole,), and counted. Immunolabeled neurons were imaged on a Leica confocal microscope. The numbers of P38-immunopositive puncta were analyzed using FIJI with the Squash plugin (FIG. 2).
# In a similar experiment, the primary mouse cortical neurons were treated with 1 μM of Benzothiazole-I or Benzothiazole-IIIB at DIV 15, using the same DMSO/PBS buffer solution described above as the control vehicle. After 24 hours, the DIV 16 neurons were fixed, immunolabeled with synaptophysin, stained with DAPI, and counted as described above.
smiles,measurement,value
"Cc1ccc2nc(-c3ccc(NCCOCCOCCOCCO)cc3)sc2c1 [Benzothiazole-I, ((4-(6-methylbenzo[d]thiazol-2-yl)phenyl)amino)-(CH2CH2O)4H, reference compound]",increase in the number of synapses compared to the control,~100%
same,number of synaptic puncta (P38-immunopositive) compared to the vehicle control,increase
OCCOCCOCCOCCOCCOCCOc1ccc(-c2nc3ccccc3s2)cc1 [Benzothiazole-IIIA],number of synaptic puncta (P38-immunopositive) compared to the vehicle control,increase
"OCCOCCOCCOCCOc1ccc(-c2nc3ccccc3s2)cc1 [Benzothiazole-IIIB, 2-(2-(2-(2-(4-(benzo[d]thiazol-2-yl)phenoxy)ethoxy)ethoxy)ethoxy)ethan-1-ol]",increase in the number of synapses compared to the control,~100%
same,number of synaptic puncta (P38-immunopositive) compared to the vehicle control,increase
